According to patent publication US20260115185A1, “QUINOLINE DERIVATIVES WHICH ACT AS KAPPA-OPIOID RECEPTOR ANTAGONISTS” (The Scripps Research Institute, priority 2023, published 2026):
pIC50: −log10 of the molar value.

Columns and labels:
[1] = target: T1, mu opioid receptor (MOR) (Homo sapiens, UniProt P35372); experiment: OPRMu1 Discover X β-arrestin Assay, antagonist mode (U2OS cells, DAMGO EC80 challenge); format: cell-based
T1 construct: host or cells: U2OS (Discover X OPRMu1-U2OS, PathHunter)
In short: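 PathHunter U2OS cells with β-gal fragment-complementation readout for β-arrestin recruitment to OPRMu1. Cells were preincubated with compound (10-point, 1:3 series from nominal 10 micromolar) for 30 min at 37 °C, then challenged with 303 nM DAMGO (EC80) for 3 h. Luminescence gave percent inhibition.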

[2] = target: T2, kappa opioid receptor (KOR) (Homo sapiens, UniProt P41145); experiment: OPRKappa 1 Tango B-Arrestin Assay, antagonist mode (Tango OPRK1-bla U2OS cells, U50488 EC80 challenge); format: cell-based; settings: for Selectivity (MOR/KOR): Kappa selectivity, MOR IC50 / KOR IC50; for pIC50: antagonist mode, Tango OPRK1-bla U2OS cells, 6 nM U50488 challenge
T2 construct: host or cells: U2OS (Tango OPRK1-bla U2OS)
In short: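 Tango OPRK1-bla U2OS cells, β-arrestin recruitment read as β-lactamase FRET (CCF4-AM, 460/590 nm emission). Compounds, 10-point 1:3 series from nominal 10 µM in quadruplicate, preincubated 30 min at 37 °C, then challenged with U50488 at 6 nM final (EC80) for 4 h; percent inhibition from median ratio.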

T1 sequence (P35372 whole entry): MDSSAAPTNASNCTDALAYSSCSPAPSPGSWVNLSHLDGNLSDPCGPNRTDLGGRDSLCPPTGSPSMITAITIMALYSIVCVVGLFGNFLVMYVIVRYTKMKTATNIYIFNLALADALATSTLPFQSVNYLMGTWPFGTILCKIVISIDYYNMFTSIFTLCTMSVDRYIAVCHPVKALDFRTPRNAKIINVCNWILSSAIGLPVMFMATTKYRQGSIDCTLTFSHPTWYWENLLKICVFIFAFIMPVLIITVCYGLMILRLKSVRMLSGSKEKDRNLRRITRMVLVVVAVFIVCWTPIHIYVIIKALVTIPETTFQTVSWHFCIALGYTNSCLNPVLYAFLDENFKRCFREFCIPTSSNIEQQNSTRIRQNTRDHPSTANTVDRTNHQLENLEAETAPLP
T2 sequence (P41145 whole entry): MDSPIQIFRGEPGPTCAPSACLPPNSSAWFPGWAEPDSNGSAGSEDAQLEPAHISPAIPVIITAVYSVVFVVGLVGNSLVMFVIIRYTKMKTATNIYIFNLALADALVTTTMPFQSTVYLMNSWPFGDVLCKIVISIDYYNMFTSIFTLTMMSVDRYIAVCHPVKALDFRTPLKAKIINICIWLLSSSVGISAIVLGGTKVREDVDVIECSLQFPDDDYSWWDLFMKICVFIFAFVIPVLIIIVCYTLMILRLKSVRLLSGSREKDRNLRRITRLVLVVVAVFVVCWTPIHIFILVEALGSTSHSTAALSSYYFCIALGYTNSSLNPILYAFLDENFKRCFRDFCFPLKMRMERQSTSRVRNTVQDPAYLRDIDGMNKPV

Row | Compound | pIC50 [1] | Selectivity (MOR/KOR) [2] | pIC50 [2]
1 | CCc1cc(F)c2nc(N3CCC(N[C@H]4COC[C@H]4F)CC3)c(-c3ccn(C)n3)c(C)c2c1 [Compound 72, 1-(6-ethyl-8-fluoro-4-methyl-3-(1-methyl-1H-pyrazol-3-yl)quinolin-2-yl)-N-((3S,4S)-4-fluorotetrahydrofuran-3-yl)piperidin-4-amine] | < 6.00 | ++ (between 10- and 100-fold selectivity) | 7.00 to 8.00
2 | CCc1cc(F)c2nc(N3CCC(N[C@H]4CCCC(F)(F)C4)CC3)c(-c3ccn(C)n3)c(C)c2c1 [Compound 73, (S)—N-(3,3-difluorocyclohexyl)-1-(6-ethyl-8-fluoro-4-methyl-3-(1-methyl-1H-pyrazol-3-yl)quinolin-2-yl)piperidin-4-amine] | 6.00 to 7.00 | ++ (between 10- and 100-fold selectivity) | 8.00 to 9.00
3 | CCc1cc(F)c2nc(N3CCC(N[C@@H]4CCCC(F)(F)C4)CC3)c(-c3ccn(C)n3)c(C)c2c1 [Compound 74] | 6.00 to 7.00 | ++ (between 10- and 100-fold selectivity) | 8.00 to 9.00
4 | CCc1cc(C#N)c2nc(N3CCC(N[C@H]4CCOC[C@@H]4F)CC3)c(-c3ccn(C)n3)c(C)c2c1 [Compound 77] | 6.00 to 7.00 | +++ (between 100- to 1000-fold selective) | > 9.00
5 | CCc1cc(C#N)c2nc(N3CCC(N[C@@H]4CCOC[C@@H]4F)CC3)c(-c3ccn(C)n3)c(C)c2c1 [Compound 78] | 7.00 to 8.00 | ++ (between 10- and 100-fold selectivity) | > 9.00
6 | CCc1cc(C#N)c2nc(N3CCC(NC4CC(F)(F)C4)CC3)c(-c3ccn(C)n3)c(C)c2c1 [Compound 79] | < 6.00 | +++ (between 100- to 1000-fold selective) | 8.00 to 9.00
7 | CCc1cc(C#N)c2nc(N3CCC(NCC4(F)CCOCC4)CC3)c(-c3ccn(C)n3)c(C)c2c1 [Compound 80] | 6.00 to 7.00 | ++ (between 10- and 100-fold selectivity) | 8.00 to 9.00
8 | CCc1cc(C#N)c2nc(N3CCC(N4CCOC[C@@H]4C)CC3)c(-c3ccn(C)n3)c(C)c2c1 [Compound 81] | < 6.00 | ++ (between 10- and 100-fold selectivity) | 7.00 to 8.00
9 | CCc1cc(C#N)c2nc(N3CCC(N4CCOC[C@H]4C)CC3)c(-c3ccn(C)n3)c(C)c2c1 [Compound 82] | < 6.00 | ++ (between 10- and 100-fold selectivity) | 7.00 to 8.00
10 | CCc1cc(F)c2nc(N3CCC(N[C@H]4CCOC4)CC3)c(-c3cc(C(F)(F)F)n(C)n3)c(C)c2c1 [Compound 84] | < 6.00 | +++ (between 100- to 1000-fold selective) | 7.00 to 8.00
11 | CCc1cc(F)c2nc(N3CCC(N[C@@H]4CCOC4)CC3)c(-c3cc(C(F)(F)F)n(C)n3)c(C)c2c1 [Compound 85] | < 6.00 | +++ (between 100- to 1000-fold selective) | 7.00 to 8.00
12 | CCc1cc(-c2ccnn2C)c2nc(N3CCC(N[C@H]4CCOC4)CC3)c(-c3ccn(C)n3)c(C)c2c1 [Compound 86] | < 6.00 | +++ (between 100- to 1000-fold selective) | > 9.00
13 | CCc1cc(-c2ccnn2C)c2nc(N3CCC(N[C@@H]4CCOC4)CC3)c(-c3ccn(C)n3)c(C)c2c1 [Compound 87] | 6.00 to 7.00 | +++ (between 100- to 1000-fold selective) | > 9.00
14 | CCc1cc(-c2ccnn2C)c2nc(N3CCC(N[C@@H]4COC[C@@H]4F)CC3)c(-c3ccn(C)n3)c(C)c2c1 [Compound 88] | 6.00 to 7.00 | ++ (between 10- and 100-fold selectivity) | 8.00 to 9.00
15 | CCc1cc(-c2ccnn2C)c2nc(N3CCC(N[C@H]4COC[C@H]4F)CC3)c(-c3ccn(C)n3)c(C)c2c1 [Compound 89] | < 6.00 | ++ (between 10- and 100-fold selectivity) | 8.00 to 9.00
16 | CCc1cc(-c2ccnn2C)c2nc(N3CCC(NCC4(F)CCC4)CC3)c(-c3ccn(C)n3)c(C)c2c1 [Compound 90] | 7.00 to 8.00 | +++ (between 100- to 1000-fold selective) | > 9.00
17 | CCc1cc(-c2ccnn2C)c2nc(N3CCC(NCC4CC(F)(F)C4)CC3)c(-c3ccn(C)n3)c(C)c2c1 [Compound 91] | 7.00 to 8.00 | ++ (between 10- and 100-fold selectivity) | 8.00 to 9.00

Row | Compound | pIC50 [1] | Selectivity (MOR/KOR) [2] | pIC50 [2]
18 | CCc1cc(-c2ccnn2C)c2nc(N3CCC(N4CCOC[C@@H]4C)CC3)c(-c3ccn(C)n3)c(C)c2c1 [Compound 92] | < 6.00 | – | < 6.00
19 | CCc1cc(-c2ccnn2C)c2nc(N3CCC(N4CCOC[C@H]4C)CC3)c(-c3ccn(C)n3)c(C)c2c1 [Compound 93] | < 6.00 | – | < 6.00
20 | CCc1cc(-c2cc(C)nn2C)c2nc(N3CCC(N[C@H]4CCOC4)CC3)c(-c3ccn(C)n3)c(C)c2c1 [Compound 94] | 7.00 to 8.00 | +++ (between 100- to 1000-fold selective) | > 9.00
21 | CCc1cc(-c2cc(C)nn2C)c2nc(N3CCC(N[C@@H]4CCOC4)CC3)c(-c3ccn(C)n3)c(C)c2c1 [Compound 95] | 7.00 to 8.00 | +++ (between 100- to 1000-fold selective) | > 9.00
22 | CCc1cc(-c2cc(C)nn2C)c2nc(N3CC[C@H](NC4CCOCC4)[C@H](F)C3)c(-c3ccn(C)n3)c(C)c2c1 [Compound 96] | < 6.00 | +++ (between 100- to 1000-fold selective) | 8.00 to 9.00
23 | CCc1cc(-c2ccnn2C)c2nc(N3CCN(C[C@@H]4CCOC4)C[C@H]3C)c(-c3ccn(C)n3)c(C)c2c1 [Compound 97] | < 6.00 | +++ (between 100- to 1000-fold selective) | 8.00 to 9.00
24 | CCc1cc(-c2ccnn2C)c2nc(N3CCN(C[C@H]4CCOC4)C[C@H]3C)c(-c3ccn(C)n3)c(C)c2c1 [Compound 98] | < 6.00 | +++ (between 100- to 1000-fold selective) | 7.00 to 8.00
25 | CCc1cc(-c2ccn(C)n2)c2nc(N3CCC(N[C@H]4CCOC4)CC3)c(-c3ccn(C)n3)c(C)c2c1 [Compound 99] | < 6.00 | ++++ (more than 1000-fold selectivity over MOR) | > 9.00
26 | CCc1cc(-c2ccn(C)n2)c2nc(N3CCC(N[C@@H]4CCOC4)CC3)c(-c3ccn(C)n3)c(C)c2c1 [Compound 100] | < 6.00 | ++++ (more than 1000-fold selectivity over MOR) | > 9.00
27 | CCc1cc(-c2ccn(C)n2)c2nc(N3CCN(C(=O)C4CCOCC4)C[C@H]3C)c(-c3ccn(C)n3)c(C)c2c1 [Compound 101] | < 6.00 | – | < 6.00
28 | CCc1cc(-c2ccn(C)n2)c2nc(N3CCC(N[C@H]4CCOC[C@@H]4F)CC3)c(-c3nc(C)no3)c(C)c2c1 [Compound 102] | < 6.00 | ++++ (more than 1000-fold selectivity over MOR) | > 9.00
29 | CCc1cc(-c2ccn(C)n2)c2nc(N3CCC(NC4CC(F)(F)C4)CC3)c(-c3nc(C)no3)c(C)c2c1 [Compound 103] | < 6.00 | +++ (between 100- to 1000-fold selective) | 8.00 to 9.00
30 | CCc1cc(-c2ccn(C)n2)c2nc(N3CCNC[C@H]3C)c(-c3nc(C)no3)c(C)c2c1 [Compound 104] | < 6.00 | +++ (between 100- to 1000-fold selective) | 7.00 to 8.00
31 | CCc1cc(-c2cc[nH]n2)c2nc(N3CCNC[C@H]3C)c(-c3nc(C)no3)c(C)c2c1 [Compound 105] | < 6.00 | ++ (between 10- and 100-fold selectivity) | 7.00 to 8.00
32 | CCc1cc(-c2cnn(CCO)c2)c2nc(N3CCNC[C@H]3C)c(-c3nc(C)no3)c(C)c2c1 [Compound 106] | < 6.00 | ++ (between 10- and 100-fold selectivity) | ≤ 7.00
33 | CCc1cc(F)c2nc(N3CC[C@H](N[C@@H]4CCOC4)[C@H](C)C3)c(-c3ccn(C)n3)c(C)c2c1 [Compound 107] | < 6.00 | +++ (between 100- to 1000-fold selective) | 7.00 to 8.00
